Results taken from US12077503B2, “Substituted cyclic amides and their use as herbicides” (FMC CORPORATION, priority 2015, dated 2024).

Experiments:
Format in all cases: in vivo
[1] = system: ducksalad (Heteranthera limosa); assay: Test B flooded paddy test; details: Flood, 250 g ai/ha; 0 to 100 scale where 0 is no effect and 100 is complete control; 13 to 15 d
In short: (§1)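 Greenhouse paddy pots with 2-leaf stage plants received compound by direct addition to floodwater 3 cm deep, kept at that level. Scored visually at 13–15 d versus controls (0 no effect; 100 complete control).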

[2] = system: sedge, umbrella (small-flower umbrella sedge, Cyperus difformis); assay: Test B flooded paddy test; details: Flood, 250 g ai/ha; 0 to 100 scale where 0 is no effect and 100 is complete control; 13 to 15 d
In short: as §1

[3] = system: barnyardgrass (Echinochloa crus-galli); assay: Test B flooded paddy test; details: Flood, 250 g ai/ha; 0 to 100 scale where 0 is no effect and 100 is complete control; 13 to 15 d
In short: as §1

[4] = system: rice (Oryra sativa); assay: Test B flooded paddy test; details: Flood, 250 g ai/ha; 0 to 100 scale where 0 is no effect and 100 is complete control; 13 to 15 d
In short: as §1

[5] = system: Kochia (Kochia scoparia); assay: Test A preemergence
In short: (§2)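 In a loam soil and sand blend, planted seeds got a preemergence directed soil spray, and young plants at the one- to two-leaf stage, 2–10 cm high, got a postemergence application; ~10 d greenhouse hold; injury rated visually, 0 = none, 100 = complete control.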

[6] = system: giant foxtail (Setaria faberii); assay: Test A preemergence
In short: as §2

[7] = system: barnyardgrass (Echinochloa crus-galli); assay: Test A preemergence
In short: as §2

[8] = system: ryegrass, Italian (Italian ryegrass, Lolium multiflorum); assay: Test A preemergence
In short: as §2

[9] = system: pigweed (Amaranthus retroflexus); assay: Test A preemergence
[10] = system: ragweed (common ragweed, Ambrosia elatior); assay: Test A preemergence
In short: as §2

[11] = system: Kochia (Kochia scoparia); assay: Test A postemergence
In short: as §2

[12] = system: corn (Zea mays); assay: Test A postemergence
In short: as §2

[13] = system: blackgrass (Alopecurus myosuroides); assay: Test A postemergence
In short: as §2

[14] = system: Galium (catchweed bedstraw, Galium aparine); assay: Test A postemergence
In short: as §2

[15] = system: giant foxtail (Setaria faberii); assay: Test A postemergence
In short: as §2

[16] = system: barnyardgrass (Echinochloa crus-galli); assay: Test A postemergence
In short: as §2

[17] = system: ryegrass, Italian (Italian ryegrass, Lolium multiflorum); assay: Test A postemergence
In short: as §2

[18] = system: pigweed (Amaranthus retroflexus); assay: Test A postemergence
In short: as §2

[19] = system: wheat (Triticum aestivum); assay: Test A postemergence
In short: as §2

[20] = system: ragweed (common ragweed, Ambrosia elatior); assay: Test A postemergence
In short: as §2

[21] = 125 g ai/ha, preemergence, 0 to 100 scale (0 no effect, 100 complete control)
[22] = Preemergence, 500 g ai/ha, 0 is no effect, 100 is complete control
[23] = 500 g ai/ha, postemergence, 0 to 100 scale, 0 no effect, 100 complete control
[24] = Postemergence, 125 g ai/ha, visual injury, 0 to 100 scale (0 no effect, 100 complete control), approx. 10 d

Question: Which “Plant response rating, Ducksalad” value [1] does the source give for `Cc1ccc(C2CNC(=O)C2C(=O)Nc2cccc(F)c2F)cc1F` (racemic) [Compound 369] here?
Answer: 100

Question: What about the “Plant response rating, Sedge, Umbrella” value [2] of the same compound?
Answer: 0

Question: What about the “Plant response rating, Barnyardgrass” value [3] of the same compound?
Answer: 20

Question: What about the “Plant response rating, Rice” value [4] of the same compound?
Answer: 0

Question: And the “Plant response rating, Kochia” value [5, 21]?
Answer: 50

Question: What about the “Kochia plant response rating (0 to 100 scale)” value [5, 22] of the same compound?
Answer: 40

Question: What about the “Plant response rating, Foxtail, Giant” value [6, 21] of the same compound?
Answer: 90

Question: What about the “Foxtail, Giant plant response rating (0 to 100 scale)” value [6, 22] of the same compound?
Answer: 90

Question: What about the “Plant response rating, Barnyardgrass” value [7, 21] of the same compound?
Answer: 90

Question: What about the “Barnyardgrass plant response rating (0 to 100 scale)” value [7, 22] of the same compound?
Answer: 90

Question: What about the “Plant response rating, Ryegrass, Italian” value [8, 21] of the same compound?
Answer: 0

Question: What about the “Ryegrass, Italian plant response rating (0 to 100 scale)” value [8, 22] of the same compound?
Answer: 20

Question: What about the “Plant response rating, Pigweed” value [9, 21] of the same compound?
Answer: 0

Question: What about the “Pigweed plant response rating (0 to 100 scale)” value [9, 22] of the same compound?
Answer: 0

Question: What about the “Plant response rating, Ragweed” value [10, 21] of the same compound?
Answer: 60

Question: And the “Ragweed plant response rating (0 to 100 scale)” value [10, 22]?
Answer: 60

Question: What about the “Plant response rating, Kochia” value [11, 23] of the same compound?
Answer: 60

Question: What about the “Plant response rating, Kochia” value [11, 24] of the same compound?
Answer: 20

Question: What about the “Plant response rating, Corn” value [12, 23] of the same compound?
Answer: 50

Question: What about the “Plant response rating, Corn” value [12, 24] of the same compound?
Answer: 0

Question: And the “Plant response rating, Blackgrass” value [13, 23]?
Answer: 70

Question: And the “Plant response rating, Blackgrass” value [13, 24]?
Answer: 30

Question: And the “Plant response rating, Galium” value [14, 23]?
Answer: 70

Question: What about the “Plant response rating, Galium” value [14, 24] of the same compound?
Answer: 60

Question: And the “Plant response rating, Foxtail, Giant” value [15, 23]?
Answer: 80

Question: What about the “Plant response rating, Foxtail, Giant” value [15, 24] of the same compound?
Answer: 20

Question: What about the “Plant response rating, Barnyardgrass” value [16, 23] of the same compound?
Answer: 90

Question: What about the “Plant response rating, Barnyardgrass” value [16, 24] of the same compound?
Answer: 90

Question: What about the “Plant response rating, Ryegrass, Italian” value [17, 23] of the same compound?
Answer: 50

Question: And the “Plant response rating, Ryegrass, Italian” value [17, 24]?
Answer: 20

Question: What about the “Plant response rating, Pigweed” value [18, 23] of the same compound?
Answer: 0

Question: What about the “Plant response rating, Pigweed” value [18, 24] of the same compound?
Answer: 0

Question: And the “Plant response rating, Wheat” value [19, 23]?
Answer: 60

Question: And the “Plant response rating, Wheat” value [19, 24]?
Answer: 0

Question: And the “Plant response rating, Ragweed” value [20, 23]?
Answer: 30

Question: And the “Plant response rating, Ragweed” value [20, 24]?
Answer: 0
